Assay results published in ChEMBL document CHEMBL1201862, “PubChem BioAssay data set” (2004).
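Cells were grown in 96-well plates and exposed to each compound for 48 hours at five concentrations; endpoints were interpolated linearly between bracketing concentrations, or set to the highest concentration if not reached. GI50: concentration for 50% inhibition of growth.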 The source made the active and inactive calls. Cut-off read from the data, not from the text of the source: active = GI50 up to about 1.1 µM and inactive = higher.

Experiments:
Assay in all cases: DTP human tumour cell line panel, 48 h
EKVX = system: EKVX
RXF 393 = system: RXF 393
K562 = system: K562
OVCAR-4 = system: OVCAR-4
LOX IMVI = system: LOX IMVI
UACC-62 = system: UACC-62
SNB-75 = system: SNB-75
SF-539 = system: SF-539
NCI-H23 = system: NCI-H23
MDA-MB-231 = system: MDA-MB-231
CCRF-CEM = system: CCRF-CEM
OVCAR-8 = system: OVCAR-8
MCF7 = system: MCF7
DU-145 = system: DU-145
OVCAR-5 = system: OVCAR-5
HT-29 = system: HT-29
HL-60 = system: HL-60
786-0 = system: 786-0
SN12C = system: SN12C
SF-268 = system: SF-268

SMILES	GI50 (EKVX)	GI50 (RXF 393)	GI50 (K562)	GI50 (OVCAR-4)	GI50 (LOX IMVI)	GI50 (UACC-62)	GI50 (SNB-75)	GI50 (SF-539)	GI50 (NCI-H23)	GI50 (MDA-MB-231)	GI50 (CCRF-CEM)	GI50 (OVCAR-8)	GI50 (MCF7)	GI50 (DU-145)	GI50 (OVCAR-5)	GI50 (HT-29)	GI50 (HL-60)	GI50 (786-0)	GI50 (SN12C)	GI50 (SF-268)
O=c1c(-c2ccccc2)c(SCCCN2CCN(c3cccc(Cl)c3)CC2)n(-c2ccccc2)c(=S)n1-c1ccccc1	> 100 µM (inactive)	> 100 µM (inactive)	> 100 µM (inactive)	23.3 µM (inactive)	> 100 µM (inactive)	> 100 µM (inactive)	> 100 µM (inactive)	> 100 µM (inactive)	> 100 µM (inactive)	> 100 µM (inactive)	> 100 µM (inactive)	> 100 µM (inactive)	> 100 µM (inactive)	> 100 µM (inactive)	> 100 µM (inactive)	80.9 µM (inactive)	> 100 µM (inactive)			
CN1CCC2(CC1)C(=O)N(N1CCCCCC1)C(=O)N2c1ccccc1	> 100 µM (inactive)	31.3 µM (inactive)	> 100 µM (inactive)	> 100 µM (inactive)	> 100 µM (inactive)	96.6 µM (inactive)	31.9 µM (inactive)	> 100 µM (inactive)	> 100 µM (inactive)	> 100 µM (inactive)	> 100 µM (inactive)	78 µM (inactive)	> 100 µM (inactive)	> 100 µM (inactive)	> 100 µM (inactive)	60.5 µM (inactive)	> 100 µM (inactive)	> 100 µM (inactive)	> 100 µM (inactive)	> 100 µM (inactive)
O=c1c(C(c2ccc3ccccc3c2)c2c(O)oc3cc(O)ccc3c2=O)c(O)oc2cc(O)ccc12	> 100 µM (inactive)	88.5 µM (inactive)	30.5 µM (inactive)		32.7 µM (inactive)	> 100 µM (inactive)	17.5 µM (inactive)	84.1 µM (inactive)	> 100 µM (inactive)	> 100 µM (inactive)	43.2 µM (inactive)	71 µM (inactive)	43.2 µM (inactive)	> 100 µM (inactive)	> 100 µM (inactive)	> 100 µM (inactive)	38.5 µM (inactive)	> 100 µM (inactive)	> 100 µM (inactive)	15.9 µM (inactive)
COc1c2c(cc3c1OCO3)C13C=CC(OC)CC1N(CC3)C2.[O-][Cl+3]([O-])([O-])O (stereo unspecified)	> 100 µM (inactive)	> 100 µM (inactive)		49.3 µM (inactive)	> 100 µM (inactive)	> 100 µM (inactive)	> 100 µM (inactive)	> 100 µM (inactive)	> 100 µM (inactive)	> 100 µM (inactive)	> 100 µM (inactive)	> 100 µM (inactive)	> 100 µM (inactive)	> 100 µM (inactive)	> 100 µM (inactive)	71 µM (inactive)	39.4 µM (inactive)	> 100 µM (inactive)	> 100 µM (inactive)	> 100 µM (inactive)
Clc1ccc(-c2nn3c(COc4ccc(OCc5nnc6sc(-c7ccc(Cl)cc7)nn56)c(Cl)c4)nnc3s2)cc1	27 µM (inactive)	15.8 µM (inactive)	25.1 µM (inactive)	25.5 µM (inactive)	17.9 µM (inactive)	> 100 µM (inactive)	12.7 µM (inactive)	24 µM (inactive)	21.1 µM (inactive)	32.2 µM (inactive)		22 µM (inactive)	35.7 µM (inactive)	37.5 µM (inactive)	24.2 µM (inactive)	17.5 µM (inactive)	17.7 µM (inactive)	13.7 µM (inactive)	> 100 µM (inactive)	15.6 µM (inactive)
O=S(=O)(O)SCCNCCCCCC1CCCCC1	9.73 µM (inactive)	17.1 µM (inactive)	0.863 µM (active)	17.2 µM (inactive)	2.14 µM (inactive)	1.88 µM (inactive)	3.56 µM (inactive)	7.11 µM (inactive)	10.4 µM (inactive)	14.8 µM (inactive)	6.24 µM (inactive)	10 µM (inactive)	2.75 µM (inactive)	6.3 µM (inactive)	9.64 µM (inactive)	6.9 µM (inactive)	7.29 µM (inactive)	13.4 µM (inactive)	6.12 µM (inactive)	3.05 µM (inactive)
CCOC(=O)/C=C(\N=P(c1ccccc1)(c1ccccc1)c1ccccc1)C(F)(F)C(F)(F)C(F)(F)C(F)(F)C(F)(F)F		> 100 µM (inactive)	> 100 µM (inactive)	> 100 µM (inactive)	> 100 µM (inactive)	> 100 µM (inactive)	> 100 µM (inactive)	> 100 µM (inactive)	> 100 µM (inactive)	> 100 µM (inactive)	> 100 µM (inactive)		> 100 µM (inactive)	> 100 µM (inactive)	> 100 µM (inactive)	> 100 µM (inactive)	> 100 µM (inactive)	> 100 µM (inactive)	> 100 µM (inactive)	> 100 µM (inactive)
CC(C)c1cc2c(c(O)c1O)[C@@]1(C)CCCC(C)(C)C1=C(O)C2	1.37 µM (inactive)	0.964 µM (active)	1.6 µM (inactive)	1.29 µM (inactive)	1.21 µM (inactive)	31.8 µM (inactive)	0.984 µM (active)	0.726 µM (active)	1.54 µM (inactive)	> 50 µM (inactive)	0.822 µM (active)	1.54 µM (inactive)	0.982 µM (active)	3.03 µM (inactive)	1.83 µM (inactive)	6.75 µM (inactive)	1.34 µM (inactive)	2.51 µM (inactive)	20.9 µM (inactive)	1.5 µM (inactive)
O=C(O)CC(Cc1ccc2c(c1)OCO2)C(=O)O (stereo unspecified)	> 100 µM (inactive)	> 100 µM (inactive)	> 100 µM (inactive)	> 100 µM (inactive)	> 100 µM (inactive)	> 100 µM (inactive)	> 100 µM (inactive)	> 100 µM (inactive)	> 100 µM (inactive)	> 100 µM (inactive)	56.2 µM (inactive)	> 100 µM (inactive)	> 100 µM (inactive)	> 100 µM (inactive)	> 100 µM (inactive)	> 100 µM (inactive)	> 100 µM (inactive)	> 100 µM (inactive)	> 100 µM (inactive)	> 100 µM (inactive)
Fc1ccc(C(OCCN2CC3CC2CN3)c2ccc(F)cc2)cc1 (stereo unspecified)		27.4 µM (inactive)	36 µM (inactive)	> 100 µM (inactive)	50.9 µM (inactive)	19.5 µM (inactive)	66.4 µM (inactive)	29.6 µM (inactive)	> 100 µM (inactive)	46.8 µM (inactive)	35.3 µM (inactive)	> 100 µM (inactive)	33.7 µM (inactive)	> 100 µM (inactive)			20.5 µM (inactive)			> 100 µM (inactive)
COC(=O)C1(NC(=O)C(CC(=O)OCc2ccccc2)NC(=O)OCc2ccccc2)CCCCCCC1 (stereo unspecified)	45.4 µM (inactive)	15.4 µM (inactive)	10.2 µM (inactive)	29.8 µM (inactive)	28.2 µM (inactive)	24.3 µM (inactive)	28.6 µM (inactive)	49.7 µM (inactive)	46.6 µM (inactive)	56.4 µM (inactive)		26.4 µM (inactive)	31.8 µM (inactive)	> 100 µM (inactive)	62.7 µM (inactive)	24.6 µM (inactive)	11.3 µM (inactive)	63.8 µM (inactive)	36.6 µM (inactive)	44.7 µM (inactive)
